Laboratory results: patent US11919901B2 (Syndax Pharmaceuticals, Inc., priority 2021, dated 2024)

Test system: MV4-11 cells
Assay: Cell proliferation assay MV4;11 (CellTiter-Glo, 72 hours)
Assay type: cell-based
Details: Homo sapiens; MV4;11 leukemia cell line, 72 hours; read-out: MV4; 11 IC50
In short: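 Luminescent CellTiter-Glo readout after 72 h culture, 37 °C, 5% CO2, expressed relative to vehicle-treated wells, with maximal inhibition taken at the highest dose. MLL-rearranged MV4-11 leukemia cells; final compound range 0.632 to 2000 nM in eight steps.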

Row | Structure (SMILES) | IC50
1 | CCN(CC)S(=O)(=O)N[C@@H]1CC[C@@H](CN2CCC3(CC2)CN(c2ncncc2Oc2ccc(F)cc2C(=O)N(C(C)C)[C@@H]2CCOC2)C3)OC1 [Example 165, 2-((4-(7-(((2S,5R)-5-((N,N-Diethylsulfamoyl)amino)tetrahydro-2H-pyran-2-yl)methyl)-2,7-diazaspiro[3.5]nonan-2-yl)pyrimidin-5-yl)oxy)-5-fluoro-N-isopropyl-N-((R)-tetrahydrofuran-3-yl)benzamide] | < 0.1 µM
2 | CC(C)N(C(=O)c1cc(F)ccc1Oc1cncnc1N1CC2(CCN(C[C@@H]3CC[C@@H](NS(C)(=O)=O)CO3)CC2)C1)[C@@H]1CCOC1 [Example 166, 5-Fluoro-N-isopropyl-2-((4-(7-(((2S,5R)-5-(methylsulfonamido)tetrahydro-2H-pyran-2-yl)methyl)-2,7-diazaspiro[3.5]nonan-2-yl)pyrimidin-5-yl)oxy)-N-((R)-tetrahydrofuran-3-yl)benzamide] | < 0.1 µM
3 | CC(C)N(C(=O)c1cc(F)ccc1Oc1cncnc1N1CC2(CCN(C[C@@H]3CC[C@@H](NS(=O)(=O)N(C)C)CO3)CC2)C1)[C@@H]1CCOC1 [Example 167, 2-((4-(7-(((2S,5R)-5-((N,N-Dimethylsulfamoyl)amino)tetrahydro-2H-pyran-2-yl)methyl)-2,7-diazaspiro[3.5]nonan-2-yl)pyrimidin-5-yl)oxy)-5-fluoro-N-isopropyl-N-((R)-tetrahydrofuran-3-yl)benzamide] | < 0.1 µM
4 | CC(C)N(C(=O)c1cc(F)ccc1Oc1cncnc1N1CC2(CCN(C[C@@H]3CC[C@@H](NS(=O)(=O)N4CCC4)CO3)CC2)C1)[C@@H]1CCOC1 [Example 168, 2-((4-(7-(((2S,5R)-5-(Azetidine-1-sulfonamido)tetrahydro-2H-pyran-2-yl)methyl)-2,7-diazaspiro[3.5]nonan-2-yl)pyrimidin-5-yl)oxy)-5-fluoro-N-isopropyl-N-((R)-tetrahydrofuran-3-yl)benzamide] | < 0.1 µM
5 | CC(C)N(C(=O)c1cc(F)ccc1Oc1cncnc1N1CC2(CCN(C[C@@H]3CC[C@@H](NS(=O)(=O)N4CCCC4)CO3)CC2)C1)[C@@H]1CCOC1 [Example 169, 5-Fluoro-N-isopropyl-2-((4-(7-(((2S,5R)-5-(pyrrolidine-1-sulfonamido)tetrahydro-2H-pyran-2-yl)methyl)-2,7-diazaspiro[3.5]nonan-2-yl)pyrimidin-5-yl)oxy)-N-((R)-tetrahydrofuran-3-yl)benzamide] | < 0.1 µM
6 | CCN(C)S(=O)(=O)N[C@@H]1CC[C@@H](CN2CCC3(CC2)CN(c2ncncc2Oc2ccc(F)cc2C(=O)N(C(C)C)[C@@H]2CCOC2)C3)OC1 [Example 170, 2-((4-(7-(((2S,5R)-5-((N-Ethyl-N-methylsulfamoyl)amino)tetrahydro-2H-pyran-2-yl)methyl)-2,7-diazaspiro[3.5]nonan-2-yl)pyrimidin-5-yl)oxy)-5-fluoro-N-isopropyl-N-((R)-tetrahydrofuran-3-yl)benzamide] | < 0.1 µM
7 | CC(C)N(C(=O)c1cc(F)ccc1Oc1cncnc1N1CC2(CCN(C[C@@H]3CC[C@@H](NS(=O)(=O)NCC(F)(F)F)CO3)CC2)C1)[C@@H]1CCOC1 [Example 171, 5-Fluoro-N-isopropyl-N-((R)-tetrahydrofuran-3-yl)-2-((4-(7-(((2S,5R)-5-((N-(2,2,2-trifluoroethyl)sulfamoyl)amino)tetrahydro-2H-pyran-2-yl)methyl)-2,7-diazaspiro[3.5]nonan-2-yl)pyrimidin-5-yl)oxy)benzamide] | < 0.1 µM
8 | CCNS(=O)(=O)N[C@@H]1CC[C@@H](CN2CCC3(CC2)CN(c2ncncc2Oc2ccc(F)cc2C(=O)N(C(C)C)[C@@H]2CCOC2)C3)OC1 [Example 172, 2-((4-(7-(((2S,5R)-5-((N-ethylsulfamoyl)amino)tetrahydro-2H-pyran-2-yl)methyl)-2,7-diazaspiro[3.5]nonan-2-yl)pyrimidin-5-yl)oxy)-5-fluoro-N-isopropyl-N-((R)-tetrahydrofuran-3-yl)benzamide] | < 0.1 µM
9 | CC(C)N(C(=O)c1cc(F)ccc1Oc1cncnc1N1CC2(CCN(C[C@@H]3CC[C@@H](NS(C)(=O)=O)CO3)CC2)C1)[C@H]1CCOC1 [Example 173, 5-Fluoro-N-isopropyl-2-((4-(7-(((2S,5R)-5-(methylsulfonamido)tetrahydro-2H-pyran-2-yl)methyl)-2,7-diazaspiro[3.5]nonan-2-yl)pyrimidin-5-yl)oxy)-N-((S)-tetrahydrofuran-3-yl)benzamide] | < 0.1 µM
10 | CC(C)N(C(=O)c1cc(F)ccc1Oc1cncnc1N1CC2(CCN(C[C@@H]3CC[C@@H](NS(=O)(=O)C(C)C)CO3)CC2)C1)[C@H]1CCOC1 [Example 174, 5-Fluoro-N-isopropyl-2-((4-(7-(((2S,5R)-5-((1-methylethyl)sulfonamido)tetrahydro-2H-pyran-2-yl)methyl)-2,7-diazaspiro[3.5]nonan-2-yl)pyrimidin-5-yl)oxy)-N-((S)-tetrahydrofuran-3-yl)benzamide] | < 0.1 µM
11 | CCN(CC)S(=O)(=O)N[C@@H]1CC[C@@H](CN2CCC3(CC2)CN(c2ncncc2Oc2ccc(F)cc2C(=O)N(C(C)C)[C@H]2CCOC2)C3)OC1 [Example 175, 2-((4-(7-(((2S,5R)-5-((N,N-Diethylsulfamoyl)amino)tetrahydro-2H-pyran-2-yl)methyl)-2,7-diazaspiro[3.5]nonan-2-yl)pyrimidin-5-yl)oxy)-5-fluoro-N-isopropyl-N-((S)-tetrahydrofuran-3-yl)benzamide] | < 0.1 µM
12 | CC(C)N(C(=O)c1cc(F)ccc1Oc1cncnc1N1CC2(CCN(C[C@@H]3CC[C@@H](NS(=O)(=O)C4CC4)CO3)CC2)C1)[C@H]1CCOC1 [Example 176, 2-((4-(7-(((2S,5R)-5-(Cyclopropanesulfonamido)tetrahydro-2H-pyran-2-yl)methyl)-2,7-diazaspiro[3.5]nonan-2-yl)pyrimidin-5-yl)oxy)-5-fluoro-N-isopropyl-N-((S)-tetrahydrofuran-3-yl)benzamide] | < 0.1 µM
13 | CC(C)N(C(=O)c1cc(F)ccc1Oc1cncnc1N1CC2(CCN(C[C@@H]3CC[C@@H](NS(=O)(=O)N(C)C)CO3)CC2)C1)[C@H]1CCOC1 [Example 177, 2-((4-(7-(((2S,5R)-5-((N,N-Dimethylsulfamoyl)amino)tetrahydro-2H-pyran-2-yl)methyl)-2,7-diazaspiro[3.5]nonan-2-yl)pyrimidin-5-yl)oxy)-5-fluoro-N-isopropyl-N-((S)-tetrahydrofuran-3-yl)benzamide] | < 0.1 µM
14 | CC(C)N(C(=O)c1cc(F)ccc1Oc1cncnc1N1CC2(CCN(C[C@@H]3CC[C@@H](NS(=O)(=O)N4CCCC4)CO3)CC2)C1)[C@H]1CCOC1 [Example 178, 5-Fluoro-N-isopropyl-2-((4-(7-(((2S,5R)-5-(pyrrolidine-1-sulfonamido)tetrahydro-2H-pyran-2-yl)methyl)-2,7-diazaspiro[3.5]nonan-2-yl)pyrimidin-5-yl)oxy)-N-((S)-tetrahydrofuran-3-yl)benzamide] | < 0.1 µM
15 | CCN(C)S(=O)(=O)N[C@@H]1CC[C@@H](CN2CCC3(CC2)CN(c2ncncc2Oc2ccc(F)cc2C(=O)N(C(C)C)[C@H]2CCOC2)C3)OC1 [Example 179, 2-((4-(7-(((2S,5R)-5-((N-Ethyl-N-methylsulfamoyl)amino)tetrahydro-2H-pyran-2-yl)methyl)-2,7-diazaspiro[3.5]nonan-2-yl)pyrimidin-5-yl)oxy)-5-fluoro-N-isopropyl-N-((S)-tetrahydrofuran-3-yl)benzamide] | < 0.1 µM
16 | CCNS(=O)(=O)N[C@@H]1CC[C@@H](CN2CCC3(CC2)CN(c2ncncc2Oc2ccc(F)cc2C(=O)N(C(C)C)[C@H]2CCOC2)C3)OC1 [Example 180, 2-((4-(7-(((2S,5R)-5-((N-Ethylsulfamoyl)amino)tetrahydro-2H-pyran-2-yl)methyl)-2,7-diazaspiro[3.5]nonan-2-yl)pyrimidin-5-yl)oxy)-5-fluoro-N-isopropyl-N-((S)-tetrahydrofuran-3-yl)benzamide] | < 0.1 µM
17 | CC(C)N(CC#N)C(=O)c1cc(F)ccc1Oc1cncnc1N1CC2(CCN(C[C@@H]3CC[C@@H](NS(=O)(=O)N(C)C)CO3)CC2)C1 [Example 181, N-(Cyanomethyl)-2-((4-(7-(((2S,5R)-5-((N,N-dimethylsulfamoyl)amino)tetrahydro-2H-pyran-2-yl)methyl)-2,7-diazaspiro[3.5]nonan-2-yl)pyrimidin-5-yl)oxy)-5-fluoro-N-isopropylbenzamide] | < 0.1 µM
18 | CC(C)N(CC#N)C(=O)c1cc(F)ccc1Oc1cncnc1N1CC2(CCN(C[C@@H]3CC[C@@H](NS(=O)(=O)N4CCC4)CO3)CC2)C1 [Example 182, 2-((4-(7-(((2S,5R)-5-(Azetidine-1-sulfonamido)tetrahydro-2H-pyran-2-yl)methyl)-2,7-diazaspiro[3.5]nonan-2-yl)pyrimidin-5-yl)oxy)-N-(cyanomethyl)-5-fluoro-N-isopropylbenzamide] | < 0.1 µM
19 | CC(C)N(CCC#N)C(=O)c1cc(F)ccc1Oc1cncnc1N1CC2(CCN(C[C@@H]3CC[C@@H](NS(=O)(=O)N(C)C)CO3)CC2)C1 [Example 183, N-(2-Cyanoethyl)-2-((4-(7-(((2S,5R)-5-((N,N-dimethylsulfamoyl)amino)tetrahydro-2H-pyran-2-yl)methyl)-2,7-diazaspiro[3.5]nonan-2-yl)pyrimidin-5-yl)oxy)-5-fluoro-N-isopropylbenzamide] | < 0.1 µM
20 | CC(C)N(CCC#N)C(=O)c1cc(F)ccc1Oc1cncnc1N1CC2(CCN(C[C@@H]3CC[C@@H](NS(=O)(=O)N4CCC4)CO3)CC2)C1 [Example 184, 2-((4-(7-(((2S,5R)-5-(Azetidine-1-sulfonamido)tetrahydro-2H-pyran-2-yl)methyl)-2,7-diazaspiro[3.5]nonan-2-yl)pyrimidin-5-yl)oxy)-N-(2-cyanoethyl)-5-fluoro-N-isopropylbenzamide] | < 0.1 µM
21 | CCS(=O)(=O)N[C@@H]1CC[C@@H](CN2CCC3(CC2)CN(c2ncnnc2Oc2ccc(F)cc2C(=O)N(CC(F)F)C(C)C)C3)OC1 [Example 185, N-(2,2-Difluoroethyl)-2-((5-(7-(((2S,5R)-5-(ethylsulfonamido)tetrahydro-2H-pyran-2-yl)methyl)-2,7-diazaspiro[3.5]nonan-2-yl)-1,2,4-triazin-6-yl)oxy)-5-fluoro-N-isopropylbenzamide] | < 0.1 µM
